Test results as given in patent publication US11319452B2, “Vapor source using solutions of precursors in tertiary amines” (President and Fellows of Harvard College, priority 2013, dated 2022).

Key:
[1] = Solubility of amidinate precursors in dry, oxygen-free trialkylamine solvent; type: physicochemical; conditions: for solubility: in dry
Description: Another important criterion for solvents is that they dissolve a sufficient amount of precursor. Useful concentrations of the solutions are typically larger than 10 weight per cent, larger than 20 weight percent in more preferred embodiments, and larger than 40 weight percent in the most preferred embodiments.
Purification to remove oxygen, moisture and di-n-hexylamine was carried out as follows: 95 g of tri-n-hexylamine was mixed with 1 g of Na and heated to 100° C. under a N2 atmosphere for 3 hours. Then the purified tri-n-hexylamine was distilled out and stored in a glove box under a purified N2 atmosphere. A nickel precursor, bis(N,N′-di-tert-butylacetamidinato)nickel(II),
[drawing 6] was dissolved in the purified dry, oxygen-free tri-n-hexylamine.

[2] = Evaporation rate by isothermal thermogravimetric analysis (TGA); type: physicochemical
Excerpt: DLE is a non-equilibrium evaporation process, because the vapor is swept away from the surface of the liquid before it can reach the equilibrium vapor pressure. The amount of liquid vaporized is thus determined by the evaporation rate. The rate of evaporation of a material can be measured using isothermal thermogravimetric analysis (TGA). In this method, a small sample (typically about 50 milligrams) of a material is held in the pan of a microbalance while a flow of a gas, such as nitrogen, passes over the surface of the material. As vapor leaves the surface of the material, its mass decreases and the microbalance measures the mass of the remaining un-evaporated material. […] The furnace temperature was increased from 110° C. to 115° C. during the time from 160 minutes to 162 minutes, at which time the temperature had stabilized at 115° C. The many mass values measured from 162 minutes until 175 minutes form a nearly continuous thick line in FIG. 1. […]
One class of precursors widely used for ALD and CVD are metal amidinates. One example is (N,N′-di-sec-butylacetamidinato)copper(I) dimer, whose evaporation rate was also measured by the same isothermal TGA method. […]

[3] = room temperature; cited from earlier work
human = conditions: cited from earlier work
marine organisms = conditions: cited from earlier work
chromosomes = conditions: reported in vitro; cited from earlier work
[4] = in tri-n-hexylamine and in tri-n-heptylamine

bis(N,N′-di-sec-butylacetamidinato)copper(I) dimer
solubility ([1]; oxygen-free tri-n-hexylamine and in tri-n-heptylamine): about 30 weight percent | evaporation rate ([2]; 160° C.=433 K, read from FIG. 2, neat precursor into 1 atmosphere nitrogen): about 0.8 mg cm^−2 min^−1

bis(N,N′-diisopropylacetamidinato)cobalt(II)
solubility (in words) ([1]; in tri-n-hexylamine): high

CCCCCCCCCCCC [Dodecane, n-dodecane]
vapor pressure [3]: around 120 mTorr

tris(N,N′-diisopropylformamidinato)lanthanum(III)
solubility (in words) [1, 4]: high

Cc1cccc2ccccc12 [1-methylnaphthalene]
effect of repeated human exposure (human): causes sensitization | toxicity to marine organisms (marine organisms): highly toxic | chromosome damage in vitro (chromosomes): cause damage to chromosomes

bis(N,N′-di-tert-butylacetamidinato)ruthenium(II)tricarbonyl
solubility (in words) [1, 4]: moderate

bis(N,N′-diisopropylacetamidinato)tin(II)
solubility (in words) ([1]; in tri-n-hexylamine): high

bis(N,N′-diisopropylpentamidinato)manganese(II)
solubility ([1]; oxygen-free tri-n-hexylamine): 8 weight percent

bis(N,N′-di-tert-butylacetamidinato)nickel(II)
solubility ([1]; oxygen-free tri-n-hexylamine): 22 weight percent

CCCCCCN(CCCCCC)CCCCCC [tri-n-hexylamine]
evaporation rate ([2]; 115° C., flow of nitrogen gas at one atmosphere): 0.346 mg min^−1 cm^−2

bis(N,N′-di-tert-butylacetamidinato)manganese(II)
solubility ([1]; oxygen-free tri-n-hexylamine): 42 weight percent

tris(N,N′-diisopropylacetamidinato)yttrium(III)
solubility (in words) [1, 4]: high
